IC50 data for 34 compounds are collected here from US11084814B2, “Pyrido[3, 4-d]pyrimidine derivative and pharmaceutically acceptable salt thereof” (Teijin Pharma Limited, priority 2016, dated 2021).

One experiment concerns the target T1, CDK2/cyclin A2 (Homo sapiens, UniProt P24941).
T1 construct: purchased Carna Biosciences, Inc. QS S Assist CDK2/Cyclin A2_FP Kit
The experiment in a line: Human CDK2/cyclin A2 inhibitory activity (QS S Assist CDK2/Cyclin A2_FP Kit, IMAP fluorescent polarization). The format is biochemical. Conditions: read-out: CDK2 Activity symbol. As to the method: Human CDK2/Cyclin A2 Inhibitory Activity
Each compound was analyzed for CDK2/cyclin A2 inhibitory activity with an assay kit (QS S Assist CDK2/Cyclin A2_FP Kit, available from Carna Biosciences, Inc.). This assay kit determines kinase activity on the basis of the IMAP technology by Molecular Devices. Specifically, the kinase activity is determined through quantification of a variation in fluorescent polarization caused by binding of a kinase-phosphorylated fluorescent substance to an IMAP-binding reagent.
An assay buffer was prepared by 10-fold dilution of the 10× assay buffer attached to the kit with distilled water, and each solution was prepared with the assay buffer. The assay buffer contained 20 mM HEPES (pH 7.4), 0.01% Tween 20, and 2 mM dithiothreitol. A test compound solution was prepared by dilution of the test compound with dimethyl sulfoxide (DMSO) to a concentration 100 times higher than the final concentration and then 25-fold dilution with the assay buffer to a concentration four times higher than the final concentration. An ATP/substrate/Metal solution was prepared by five-fold dilution of the 5×ATP/substrate/Metal solution attached to the kit with the assay buffer. An enzyme solution was prepared by dilution of the CDK2/cyclin A2 attached to the kit with the assay buffer to a concentration twice higher than the final concentration (final concentration of CDK2/cyclin A2: 2.5 ng/well). A detection reagent was prepared by five-fold dilution of 5×IMAP-binding buffer A with distilled water and 400-fold dilution of the IMAP-binding reagent with the diluted buffer.
(§1) The test compound solution (5 μL/well) and the ATP/substrate/Metal solution (5 μL/well) were added to a 384-well plate, and the enzyme solution or the assay buffer (10 μL/well) was added to the plate (total amount of the reaction mixture: 20 μL/well) for initiation of enzymatic reaction. […] The reaction was performed at room temperature for 60 minutes, and the detection reagent (60 μL/well) was then added to the plate, followed by further reaction for 30 minutes at room temperature under light shielding conditions. Subsequently, fluorescent polarization was determined with a microplate reader at an excitation wavelength of 485 nm and an emission wavelength of 535 nm.
The percent inhibition of enzyme activity was calculated for each test compound (note: enzyme activity=100% in the case of addition of the enzyme solution and addition of DMSO instead of the test compound solution, whereas enzyme activity […] in the case of addition of the assay buffer instead of the enzyme solution and addition of DMSO instead of the test compound solution). The percent inhibition of enzyme activity was fitted to a dose-response curve, to determine a 50% inhibitory concentration against CDK2/cyclin A2.
In each table, “+++” corresponds to IC50<10 nM, “++” 10 nM≤IC50<100 nM, and “+” 100 nM≤IC50.

The target in a further experiment is T2, CDK4/cyclin D3 (Homo sapiens, UniProt P11802).
T2 construct: purchased Carna Biosciences, Inc. QS S Assist CDK4/Cyclin D3_FP Kit
T2 sequence (P11802 whole entry): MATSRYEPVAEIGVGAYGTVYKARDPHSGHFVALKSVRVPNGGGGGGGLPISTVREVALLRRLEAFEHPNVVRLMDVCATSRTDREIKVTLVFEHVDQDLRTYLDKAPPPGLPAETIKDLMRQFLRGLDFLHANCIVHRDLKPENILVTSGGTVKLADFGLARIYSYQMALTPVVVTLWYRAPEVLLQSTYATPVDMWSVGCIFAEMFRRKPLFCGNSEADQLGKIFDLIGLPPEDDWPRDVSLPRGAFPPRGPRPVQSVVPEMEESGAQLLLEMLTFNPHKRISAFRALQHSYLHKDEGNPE
T2 sequence (P30281 whole entry partner): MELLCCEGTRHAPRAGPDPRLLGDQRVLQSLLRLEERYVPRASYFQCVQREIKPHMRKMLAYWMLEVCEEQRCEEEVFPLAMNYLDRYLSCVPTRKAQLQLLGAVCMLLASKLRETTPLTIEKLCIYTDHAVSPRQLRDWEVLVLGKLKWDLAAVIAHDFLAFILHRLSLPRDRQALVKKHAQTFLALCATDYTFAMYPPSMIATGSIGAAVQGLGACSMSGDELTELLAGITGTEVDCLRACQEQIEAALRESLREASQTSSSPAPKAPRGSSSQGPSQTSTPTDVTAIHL
The experiment in a line: Human CDK4/cyclin D3 inhibitory activity (QS S Assist CDK4/Cyclin D3_FP Kit, IMAP fluorescent polarization). The format is biochemical. To be noted: read-out: CDK4 Activity symbol. How it is done:
Human CDK4/Cyclin D3 Inhibitory Activity
Each compound was analyzed for CDK4/cyclin D3 inhibitory activity with an assay kit (QS S Assist CDK4/Cyclin D3_FP Kit, available from Carna Biosciences, Inc.). This assay kit determines kinase activity on the basis of the IMAP technology by Molecular Devices. Specifically, the kinase activity is determined through quantification of a variation in fluorescent polarization caused by binding of a kinase-phosphorylated fluorescent substance to an IMAP-binding reagent.
Each solution was prepared with the 10× assay buffer attached to the kit or a separately prepared assay buffer having the same composition as the assay buffer attached to the kit. An assay buffer was prepared by 10-fold dilution of the 10× assay buffer with distilled water. The assay buffer contains 20 mM HEPES (pH 7.4), 0.01% Tween20, and 2 mM dithiothreitol. A test compound solution was prepared by dilution of the test compound with dimethyl sulfoxide (DMSO) to a concentration 100 times higher than the final concentration and then 25-fold dilution with the assay buffer to a concentration four times higher than the final concentration. An ATP/substrate/Metal solution was prepared by five-fold dilution of the 5×ATP/substrate/Metal solution attached to the kit with the assay buffer. An enzyme solution was prepared by dilution of the CDK4/cyclin D3 attached to the kit with the assay buffer to a concentration twice higher than the final concentration (final concentration of CDK4/cyclin D3: 12.5 to 25 ng/well). A detection reagent was prepared by five-fold dilution of each of 5×IMAP-binding buffer A and 5×IMAP-binding buffer B with distilled water, mixing of IMAP-binding buffer A with IMAP-binding buffer B at a ratio of 85:15, and 400-fold dilution of the IMAP-binding reagent with the mixed buffer.
as §1, with “for 45” for “for 60”
The percent inhibition of enzyme activity was calculated for each test compound (note: enzyme activity=100% in the case of addition of the enzyme solution and addition of DMSO instead of the test compound solution, whereas enzyme activity […] in the case of addition of the assay buffer instead of the enzyme solution, and addition of DMSO instead of the test compound solution). The percent inhibition of enzyme activity was fitted to a dose-response curve, to determine a 50% inhibitory concentration against CDK4/cyclin D3.
In each table, “+++” corresponds to IC50<10 nM. “++” 10 nM […] IC50<100 nM, and “+” 100 nM≤IC50.

For `CC(C)(O)c1cc2cnc(Nc3ccc(N4CCNCC4)cn3)nc2c(N2CCOCC2)n1` [Compound 37], the IC50 was at least 100 nM at CDK2/cyclin A2 and 10 to 100 nM on CDK4/cyclin D3.
Take `OCCc1cc2cnc(Nc3ccc(N4CCNCC4)cn3)nc2c(N2CCOCC2)n1` [Compound 38]: the IC50 on CDK2/cyclin A2 and on CDK4/cyclin D3 was at least 100 nM each time.
Turning to `C[C@@H](O)c1cc2cnc(Nc3ccc(N4CCNCC4)nn3)nc2c(N2CCCC2C(=O)O)n1` (some centres unmarked) [Compound 39], the results for the IC50 at CDK2/cyclin A2 and at CDK4/cyclin D3 were at least 100 nM and below 10 nM, respectively.
On to `C[C@@H](O)c1cc2cnc(Nc3ccc(N4CCNCC4)nn3)nc2c(N2CCCC(C(=O)O)C2)n1` (some centres unmarked) [Compound 40], for which the figures for the IC50 on CDK2/cyclin A2 and at CDK4/cyclin D3 were at least 100 nM and below 10 nM, respectively.
On the same counts, the results for `C[C@@H](O)c1cc2cnc(Nc3ccc(N4CCNCC4)nn3)nc2c(N2CCCCC2C(=O)O)n1` (some centres unmarked) [Compound 41] are at least 100 nM and below 10 nM.
On the same counts, the results for `C[C@@H](O)c1cc2cnc(Nc3ccc(CN4CCNCC4)cn3)nc2c(N2CCCC2C(=O)O)n1` (some centres unmarked) [Compound 42] are at least 100 nM and at least 100 nM.
On the same counts, the results for `C[C@@H](O)c1cc2cnc(Nc3ccc(CN4CCN(CCO)CC4)cn3)nc2c(N2CCC2)n1` [Compound 47] are at least 100 nM and 10 to 100 nM.
With `C[C@@H](O)c1cc2cnc(Nc3ccc(CN4CCN(CCO)CC4)cn3)nc2c(N2CCCC2)n1` [Compound 48], the IC50 is at least 100 nM on CDK2/cyclin A2 and below 10 nM at CDK4/cyclin D3.
As for `C[C@@H](O)c1cc2cnc(Nc3ccc(CN4CCN(CCO)CC4)cn3)nc2c(N2CCCCC2)n1` [Compound 49], the IC50 on CDK2/cyclin A2 was at least 100 nM; at CDK4/cyclin D3, below 10 nM.
For `C[C@@H](O)c1cc2cnc(Nc3ccc(N4CCNCC4=O)cn3)nc2c(N2CCC2)n1` [Compound 50], in that order: at least 100 nM and 10 to 100 nM.
As for `C[C@@H](O)c1cc2cnc(Nc3ccc(N4CCNCC4=O)cn3)nc2c(N2CCCC2)n1` [Compound 51], the IC50 on CDK2/cyclin A2 was at least 100 nM; at CDK4/cyclin D3 it was below 10 nM.
For `C[C@@H](O)c1cc2cnc(Nc3ccc(N4CCNCC4=O)cn3)nc2c(N2CCCCC2)n1` [Compound 52], in that order: at least 100 nM and below 10 nM.
For `Cc1nc(Nc2ncc3cc([C@@H](C)O)nc(N4CCCC4)c3n2)ccc1N1CCN(C)CC1` [Compound 53], in that order: at least 100 nM and below 10 nM.
`Cc1nc(Nc2ncc3cc([C@@H](C)O)nc(N4CCCCC4)c3n2)ccc1N1CCN(C)CC1` [Compound 54]: the IC50 on CDK2/cyclin A2 was at least 100 nM; on CDK4/cyclin D3, below 10 nM.
Turning to `C[C@@H](O)c1cc2cnc(Nc3ccc(CN4CCN(C)CC4)cn3)nc2c(N2CCCC2)n1` [Compound 55], the values for the IC50 on CDK2/cyclin A2 and at CDK4/cyclin D3 were at least 100 nM and below 10 nM, respectively.
As to `C[C@@H](O)c1cc2cnc(Nc3ccc(CN4CCN(C)CC4)cn3)nc2c(N2CCCCC2)n1` [Compound 56], the results for the IC50 on CDK2/cyclin A2 and on CDK4/cyclin D3 were at least 100 nM and below 10 nM, respectively.
As for `C[C@@H](O)c1cc2cnc(Nc3ccc(CN4CCN(CCO)CC4)cn3)nc2c(N2CC3(CCC3)C2)n1` [Compound 57], the IC50 on CDK2/cyclin A2 was at least 100 nM; at CDK4/cyclin D3, below 10 nM.
With `C[C@@H](O)c1cc2cnc(Nc3ccc(CN4CCN(CCO)CC4)cn3)nc2c(N2CCOCC2)n1` [Compound 58], the IC50 was at least 100 nM at CDK2/cyclin A2 and 10 to 100 nM on CDK4/cyclin D3.
With `C[C@@H](O)c1cc2cnc(Nc3ccc(CN4CCN(CCO)CC4)cn3)nc2c(N2CCCCCC2)n1` [Compound 59], the IC50 on CDK2/cyclin A2 was at least 100 nM; at CDK4/cyclin D3 it was below 10 nM.
As to `C[C@@H](O)c1cc2cnc(Nc3ccc4c(n3)CCN(CCN(C)C)C4)nc2c(N2CCCCC2)n1` [Compound 60], the IC50 on CDK2/cyclin A2 was at least 100 nM; at CDK4/cyclin D3, below 10 nM.
With `C[C@@H](O)c1cc2cnc(Nc3ccc4c(n3)CCN(CCN(C)C)C4)nc2c(N2CCC(F)CC2)n1` [Compound 61], the IC50 at CDK2/cyclin A2 is at least 100 nM; on CDK4/cyclin D3, below 10 nM.
On the same counts, the results for `C[C@@H](O)c1cc2cnc(Nc3ccc4c(n3)CCNC4)nc2c(N2CCCCC2)n1` [Compound 62] are at least 100 nM and below 10 nM.
As to `C[C@@H](O)c1cc2cnc(Nc3ccc4c(n3)CCNC4)nc2c(N2CCC(F)CC2)n1` [Compound 63], the IC50 is at least 100 nM at CDK2/cyclin A2 and below 10 nM at CDK4/cyclin D3.
On the same counts, the results for `C[C@@H](O)c1cc2cnc(Nc3ccc(N4CCNCC4=O)cn3)nc2c(N2CCC(F)(F)CC2)n1` [Compound 64] are at least 100 nM and below 10 nM.
As for `C[C@@H](O)c1cc2cnc(Nc3ccc(CN4CCC(O)CC4)cn3)nc2c(N2CCCCC2)n1` [Compound 65], the values for the IC50 at CDK2/cyclin A2 and on CDK4/cyclin D3 were at least 100 nM and below 10 nM, respectively.
For `C[C@@H](O)c1cc2cnc(Nc3ccc(CN4CCC(O)CC4)cn3)nc2c(N2CCCC2)n1` [Compound 66], in that order: at least 100 nM and 10 to 100 nM.
For `C[C@@H](O)c1cc2cnc(Nc3ccc(CN4CCC(O)CC4)cn3)nc2c(N2CCOCC2)n1` [Compound 67], in that order: at least 100 nM and 10 to 100 nM.
On to `C[C@@H](O)c1cc2cnc(Nc3ccc(CN4CCC(CO)CC4)cn3)nc2c(N2CCCCC2)n1` [Compound 68], for which the IC50 at CDK2/cyclin A2 is at least 100 nM; on CDK4/cyclin D3 it was below 10 nM.
Turning to `C[C@@H](O)c1cc2cnc(Nc3ccc(CN4CCC(CO)CC4)cn3)nc2c(N2CCCC2)n1` [Compound 69], the IC50 at CDK2/cyclin A2 is at least 100 nM; on CDK4/cyclin D3, below 10 nM.
`C[C@@H](O)c1cc2cnc(Nc3ccc(CN4CCC(CO)CC4)cn3)nc2c(N2CCOCC2)n1` [Compound 70]: the IC50 was at least 100 nM on CDK2/cyclin A2 and 10 to 100 nM at CDK4/cyclin D3.
Consider `C[C@@H](O)c1cc2cnc(Nc3ccc(N4CCN(C)CC4=O)cn3)nc2c(N2CCCCC2)n1` [Compound 72], for which the values for the IC50 on CDK2/cyclin A2 and at CDK4/cyclin D3 were at least 100 nM and below 10 nM, respectively.
Take `C[C@@H](O)c1cc2cnc(Nc3ccc(N4CCN(C)CC4=O)cn3)nc2c(N2CCCC2)n1` [Compound 73]: the IC50 at CDK2/cyclin A2 was at least 100 nM; on CDK4/cyclin D3, 10 to 100 nM.
For `C[C@@H](O)c1cc2cnc(Nc3ccc(N4CCN(C)CC4=O)cn3)nc2c(N2CCOCC2)n1` [Compound 74], in that order: at least 100 nM and 10 to 100 nM.
`C[C@@H](O)c1cc2cnc(Nc3ccc(CN4CCN(CCO)CC4)cn3)nc2c(N2CCCC2(C)C)n1` [Compound 75]: the IC50 at CDK2/cyclin A2 is 10 to 100 nM; on CDK4/cyclin D3 it was below 10 nM.
